This passage reports Ki, inhibition in vivo and melting point results from US20100120858A1, “Piperidine Derivatives” (Pfizer Inc., priority 2006, published 2010).

In series [1] the target is human norepinephrine transporter (Homo sapiens, UniProt P23975). Description: Human norepinephrine (hNET) receptor binding, [125I]-RTI-55. The following applies: membranes of HEK-293 cells transfected with human norepinephrine transporter cDNA; 50 pM [125I]-RTI-55; IC50 converted by Cheng-Prusoff. Put shortly:
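Membranes from HEK-293 cells expressing human NET, incubated 90 min at room temperature with 50 pM [125I]-RTI-55 and compound (10^−5 to 10^−12 M) in Krebs-HEPES pH 7.4. Nonspecific binding defined with 10 μM desipramine; filter-bound counts gave IC50, converted to Ki by Cheng-Prusoff.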

Series [2] addresses human serotonin transporter (Homo sapiens, UniProt P31645). Description: Human serotonin (hSERT) receptor binding, [125I]-RTI-55. The following applies: membranes of HEK-293 cells transfected with human serotonin transporter cDNA, IC50 converted by Cheng-Prusoff. Summed up:
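Membranes from HEK-293 cells expressing human SERT were incubated 90 min at room temperature in Krebs-HEPES buffer pH 7.4 with […] [125I]-RTI-55 and compound (10^−5 to 10^−12 M), in duplicate. Nonspecific binding defined with 10 μM citalopram; IC50 converted to Ki by Cheng-Prusoff.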

Series [3] has as its system capsaicin-induced mechanical allodynia. The experiment in a line: Capsaicin-induced mechanical allodynia rat model. The series is classed as in vivo. As to conditions: sc, male Sprague-Dawley rats, single subcutaneous 10 mg/kg dose on Day 7, measurement 1 hour post dose, mean of eight animals. As to the method: On Day 0, male Sprague-Dawley rats (about 150 g each) in the dark cycle were placed in suspended wire-bottom cages and allowed to acclimate for 0.5 hour in a darkened, quiet room. The Day 0 paw withdrawal threshold (PWT) was determined on the left hind paw by Von Frey hair assessment using the Dixon up and down method. After assessment, the plantar muscle of the right hind paw was injected with 100 μL of capsaicin (0.25% weight/volume (w/v) in 10% ethanol, 10% Tween 80, in sterile saline).
On Day 6, the PWT of the left hind paw (contralateral from the injected paw) was determined for each animal. Animals on Day 6 with PWT≦11.7 g were considered allodynic responders and were regrouped so that the animals in each cage had similar mean PWT values.
On Day 7, the responders were dosed subcutaneously with 10 mg of the test compound per kg of rat body weight in vehicle, or were administered vehicle (10 mL/kg) alone. The vehicle was phosphate buffered saline containing 2% CREMOPHOR® EL (BASF). The contralateral (i.e., left hind paw) PWT values were determined at 1 hour after the single dose, with the investigator blinded to the dosing scheme. For each animal, the Day 6 PWT value was subtracted from the Day 7, 1 hour PWT value for the 10 mg/kg doses of test compound to give a delta PWT value (Delta PWT (drug)), which represents the change in PWT due to the 1 hour drug treatment. In the case of vehicle-alone treated animals, the Day 6 PWT value was subtracted from the Day 7, 1 hour PWT for the 10 mL/kg doses of vehicle and the values averaged (mean Delta PWT (vehicle)). In addition, the Day 6 PWT was subtracted from the Day 0 PWT to give the baseline level (Baseline) of allodynia present in each animal. Percent inhibition of allodynia of each animal, normalized for vehicle controls, was determined using the following formula: […]

In general, Ki refers to a measure of affinity in units of concentration, obtained from inhibition or displacement. Low values mean tighter binding, high ones weaker binding. The term inhibition in vivo denotes the relative decrease from the control value, in per cent. Usually melting point stands for the temperature of the solid-liquid transition.

The structures appear in SMILES notation. Structures can show the parent of a compound that is named as a salt. A value given as a limit tells only on which side of the number the result lay.

human serotonin transporter, sequence (P31645 whole entry): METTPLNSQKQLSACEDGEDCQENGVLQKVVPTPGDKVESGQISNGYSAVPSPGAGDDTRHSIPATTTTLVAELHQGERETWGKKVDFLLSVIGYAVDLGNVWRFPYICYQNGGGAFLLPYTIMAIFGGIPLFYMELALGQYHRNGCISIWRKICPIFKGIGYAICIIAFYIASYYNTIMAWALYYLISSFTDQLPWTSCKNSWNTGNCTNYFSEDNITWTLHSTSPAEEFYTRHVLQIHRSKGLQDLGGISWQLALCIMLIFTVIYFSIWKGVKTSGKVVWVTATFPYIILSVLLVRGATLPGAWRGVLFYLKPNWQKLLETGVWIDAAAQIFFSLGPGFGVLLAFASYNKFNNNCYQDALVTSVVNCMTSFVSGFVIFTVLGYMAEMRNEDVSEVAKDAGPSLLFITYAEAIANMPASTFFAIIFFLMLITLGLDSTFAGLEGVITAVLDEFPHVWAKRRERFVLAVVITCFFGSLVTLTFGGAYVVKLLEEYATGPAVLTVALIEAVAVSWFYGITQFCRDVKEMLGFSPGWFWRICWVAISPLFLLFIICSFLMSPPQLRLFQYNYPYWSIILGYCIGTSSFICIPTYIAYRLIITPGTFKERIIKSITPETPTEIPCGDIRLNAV
human norepinephrine transporter, sequence (P23975 whole entry): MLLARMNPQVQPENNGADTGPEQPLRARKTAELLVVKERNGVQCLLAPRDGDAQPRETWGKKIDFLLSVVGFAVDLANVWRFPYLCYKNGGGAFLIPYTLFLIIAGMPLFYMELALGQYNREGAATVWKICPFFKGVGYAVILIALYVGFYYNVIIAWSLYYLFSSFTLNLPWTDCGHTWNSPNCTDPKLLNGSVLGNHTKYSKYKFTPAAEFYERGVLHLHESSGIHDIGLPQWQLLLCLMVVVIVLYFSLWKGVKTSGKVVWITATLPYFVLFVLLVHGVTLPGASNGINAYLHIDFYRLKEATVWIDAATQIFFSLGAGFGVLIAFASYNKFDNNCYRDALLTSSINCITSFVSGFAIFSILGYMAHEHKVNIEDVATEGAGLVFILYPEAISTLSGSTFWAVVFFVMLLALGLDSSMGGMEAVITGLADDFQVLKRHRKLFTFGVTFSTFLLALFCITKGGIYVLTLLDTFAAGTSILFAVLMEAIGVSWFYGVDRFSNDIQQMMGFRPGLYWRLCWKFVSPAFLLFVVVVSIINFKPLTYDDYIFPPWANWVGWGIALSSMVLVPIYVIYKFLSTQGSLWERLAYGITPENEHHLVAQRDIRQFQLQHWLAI

In the case of `Cc1ccc(Oc2nc(C)ccc2OC[C@H]2CCCNC2)c(Cl)c1` [Example 14, (S)-2-(2-chloro-4-methyl-phenoxy)-6-methyl-3-(piperidin-3-ylmethoxy)-pyridine fumaric acid], the Ki in series [1] was 2.8 nM; in series [2], 40 nM. In addition, 10 mg/kg produced 48% inhibition in vivo in series [3].
In the case of `CCc1ccc(Oc2nc(C)ccc2OC[C@H]2CCCNC2)c(OC)c1` [Example 11, (S)-2-(4-ethyl-2-methoxy-phenoxy)-6-methyl-3-(piperidin-3-ylmethoxy)-pyridine fumaric acid], the Ki was 18 nM in series [1] and 180 nM in series [2]. Testing at 10 mg/kg in series [3] gave an inhibition in vivo of 9%.
The like results for `COc1cc(Cl)ccc1Oc1nc(C)ccc1OC[C@H]1CCCNC1` [Example 12, (S)-2-(4-chloro-2-methoxy-phenoxy)-6-methyl-3-(piperidin-3-ylmethoxy)-pyridine fumaric acid] were, in that order, 8.7 nM, 120 nM and 88%.
The corresponding values for `Cc1ccc(Oc2nc(C)ccc2OC[C@H]2CCCNC2)cc1` [Example 8, (S)-2-(4-methyl-phenoxy)-6-methyl-3-(piperidin-3-ylmethoxy)-pyridine fumaric acid] are 10.3 nM, 159 nM and 22%.
With `Cc1ccc(OC[C@H]2CCCNC2)c(Oc2ccc(F)cc2F)n1` [Example 25, (S)-2-(2,4-difluoro-phenoxy)-6-methyl-3-(piperidin-3-ylmethoxy)-pyridine fumaric acid], the Ki was 3.3 nM in series [1] and 72 nM in series [2]. This compound also returned an inhibition in vivo at 10 mg/kg in series [3] of 77%.
Consider `COc1ccc(Oc2nc(C)ccc2OC[C@H]2CCCNC2)cc1` [Example 6, (S)-2-(4-methoxy-phenoxy)-6-methyl-3-(piperidin-3-ylmethoxy)-pyridine fumaric acid], for which the Ki in series [1] came out at 16 nM; in series [2], 360 nM. Moreover, the inhibition in vivo at 10 mg/kg in series [3] is 16%.
The corresponding values for `Cc1ccc(OC[C@H]2CCCNC2)c(Oc2cc(F)c(F)cc2F)n1` [Example 29, (S)-6-methyl-2-(2,4,5-trifluoro-phenoxy)-3-(piperidin-3-ylmethoxy)-pyridine fumaric acid] are 5.3 nM, 130 nM and 11%.
The corresponding values for `Cc1ccc(OC[C@H]2CCCNC2)c(Oc2c(F)cc(F)cc2F)n1` [Example 44, (S)-6-methyl-2-(2,4,6-trifluoro-phenoxy)-3-(piperidin-3-ylmethoxy)-pyridine hydrochloride] are 4.8 nM, 82 nM and 18%.
With `Cc1ccc(OC[C@H]2CCCNC2)c(Oc2c(F)cc(Cl)cc2F)n1` [Example 45, (S)-2-(4-chloro-2,6-difluoro-phenoxy)-6-methyl-3-(piperidin-3-ylmethoxy)-pyridine hydrochloride], the Ki in series [1] turned out to be 8.4 nM; in series [2] it was 29 nM. In series [3], this compound displayed an inhibition in vivo at 10 mg/kg of 1%.
The corresponding values for `COc1cc(C)ccc1Oc1nc(C)ccc1OC[C@H]1CCCNC1` [Example 4, (S)-2-(2-methoxy-4-methyl-phenoxy)-6-methyl-3-(piperidin-3-ylmethoxy)-pyridine fumaric acid] are 7.4 nM, 170 nM and 43%.
The like results for `Cc1ccc(OC[C@H]2CCCNC2)c(Oc2ccc(Cl)cc2F)n1` [Example 23, (S)-2-(4-chloro-2-fluoro-phenoxy)-6-methyl-3-(piperidin-3-ylmethoxy)-pyridine fumaric acid] were, in that order, 5.3 nM, 28 nM and 65%.
In turn, `Cl.c1ccc(OC2CCCCC2)c(OC[C@H]2CCCNC2)c1` [Example 101, (S)-3-(2-cyclohexyloxy-phenoxymethyl)-piperidine hydrochloride] showed a melting point of 149 to 150 °C. In series [1], the affinity, expressed as Ki, was 20 nM. The Ki in series [2] is above 9700 nM.
The corresponding values for `Fc1cccc(F)c1Oc1ncccc1OC[C@H]1CCCNC1.O=C(O)/C=C/C(=O)O` [Example 72, (S)-2-(2,6-difluoro-phenoxy)-3-(piperidin-3-ylmethoxy)-pyridine fumaric acid] are 182 to 183 °C (dec.), 2 nM and 3300 nM.
